Measurements as given in patent publication US20070117770A1, “Human ribosomal DNA (rDNA) and ribosomal RNA (rRNA) nucleic acids and uses thereof” (Cylene Pharmaceuticals, Inc., priority 2005, published 2007).

Legend:
[1] = target: PDGFRα(h) (Homo sapiens, UniProt P16234); assay: Protein kinase inhibition assay; assay type: biochemical; conditions: read-out: percent residual activity of PDGFRα(h)
Method: (§1) Certain compounds were tested for activity in protein kinase inhibition assays. All substrates were dissolved and diluted to working stocks in de-ionized water, apart from histone H1 (10× working stock in 20 mM MOPS pH 7.0), PDKtide (10× working stock in 50 mM Tris pH 7.0) ATF2 (which is typically stored at a 20× working stock in 50 mM Tris pH 7.5, 150 mM NaCl, 0.1 mM EGTA, 0.03% Brij-35, 50% glycerol, 1 mM benzamidine, 0.2 mM PMSF and 0.1% R-mercaptoethanol), KKLNRTLSFAEPG (SEQ ID NO:203) and RRRLSFAEPG (SEQ ID NO:204) (50 mM HEPES pH 7.4) and GGEEEEYFELVKKKK (SEQ ID NO:205) (20 mM MOPS pH 7.0). All kinases were pre-diluted to a 10× working concentration prior to addition into the assay. The composition of the dilution buffer for each kinase is detailed below.
In a final reaction volume of 25 μl, PDGFRα (h) (5-10 mU) is incubated with 8 mM MOPS pH 7.0, 0.2 mM EDTA, 0.1 mg/ml poly(Glu, Tyr) 4:1, 10 mM MnCl2, 10 mM MgAcetate and [gamma-33P-ATP] (specific activity approx. 500 cpm/pmol, concentration as required). The reaction is initiated by the addition of the MgATP mix. After incubation for 40 minutes at room temperature, the reaction is stopped by the addition of 5 μl of a 3% phosphoric acid solution. 10 μl of the reaction is then spotted onto a Filtermat A and washed three times for 5 minutes in 75 mM phosphoric acid and once in methanol prior to drying and scintillation counting.

[2] = target: IR(h) (Homo sapiens, UniProt P06213); assay: Protein kinase inhibition assay; assay type: biochemical; conditions: read-out: percent residual activity of IR(h)
IR(h), sequence (P06213 28-1382): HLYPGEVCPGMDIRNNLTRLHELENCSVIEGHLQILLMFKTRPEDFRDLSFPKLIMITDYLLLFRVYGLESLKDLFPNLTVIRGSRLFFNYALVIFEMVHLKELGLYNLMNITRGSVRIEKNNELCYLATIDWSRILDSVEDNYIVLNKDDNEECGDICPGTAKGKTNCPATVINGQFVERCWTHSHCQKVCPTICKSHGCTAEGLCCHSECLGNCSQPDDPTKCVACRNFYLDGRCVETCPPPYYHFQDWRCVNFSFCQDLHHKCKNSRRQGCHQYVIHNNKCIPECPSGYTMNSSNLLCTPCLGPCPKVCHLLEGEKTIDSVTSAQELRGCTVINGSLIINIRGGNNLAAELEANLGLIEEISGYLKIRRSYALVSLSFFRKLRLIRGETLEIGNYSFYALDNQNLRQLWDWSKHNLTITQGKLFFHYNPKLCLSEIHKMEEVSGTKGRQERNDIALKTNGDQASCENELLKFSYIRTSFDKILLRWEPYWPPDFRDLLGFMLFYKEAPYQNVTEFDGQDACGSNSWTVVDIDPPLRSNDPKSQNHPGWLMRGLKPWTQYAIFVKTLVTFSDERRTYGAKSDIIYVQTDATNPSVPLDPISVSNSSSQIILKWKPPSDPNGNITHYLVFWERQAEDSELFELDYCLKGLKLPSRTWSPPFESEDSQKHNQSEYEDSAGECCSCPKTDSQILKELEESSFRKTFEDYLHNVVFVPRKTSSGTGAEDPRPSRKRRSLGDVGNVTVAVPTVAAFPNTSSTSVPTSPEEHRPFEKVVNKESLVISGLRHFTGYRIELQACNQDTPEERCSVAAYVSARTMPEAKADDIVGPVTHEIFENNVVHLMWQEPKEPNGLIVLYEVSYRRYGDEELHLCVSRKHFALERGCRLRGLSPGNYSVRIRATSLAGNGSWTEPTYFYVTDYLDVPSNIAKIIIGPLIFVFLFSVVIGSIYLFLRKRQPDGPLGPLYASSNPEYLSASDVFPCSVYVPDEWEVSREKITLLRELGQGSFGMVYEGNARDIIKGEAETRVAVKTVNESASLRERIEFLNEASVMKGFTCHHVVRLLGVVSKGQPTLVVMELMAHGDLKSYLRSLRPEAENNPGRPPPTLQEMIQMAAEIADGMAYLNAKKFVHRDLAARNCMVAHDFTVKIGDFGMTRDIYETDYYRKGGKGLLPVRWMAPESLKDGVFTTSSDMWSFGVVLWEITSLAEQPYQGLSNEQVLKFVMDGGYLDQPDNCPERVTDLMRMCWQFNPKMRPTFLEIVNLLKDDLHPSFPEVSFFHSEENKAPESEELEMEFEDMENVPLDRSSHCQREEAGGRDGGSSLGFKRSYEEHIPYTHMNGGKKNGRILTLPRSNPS
Method: as §1
In a final reaction volume of 25 μl, IR (h) (5-10 mU) is incubated with 50 mM Tris pH 7.5, 0.1 mM EGTA, 0.1 mM Na3VO4, 0.1% R-mercaptoethanol, 250 μM KKSRGDYMTMQIG (SEQ ID NO:210), 10 mM MnCl2, 10 mM MgAcetate and [gamma-33P-ATP] (specific activity approx. 500 cpm/pmol, concentration as required). The reaction is initiated by the addition of the MgATP mix. After incubation for 40 minutes at room temperature, the reaction is stopped by the addition of 5 μl of a 3% phosphoric acid solution. […]

[3] = target: MAPK2(h) (Homo sapiens, UniProt P28482); assay: Protein kinase inhibition assay; assay type: biochemical; conditions: read-out: percent residual activity of MAPK2(h)
MAPK2(h), sequence (P28482 whole entry): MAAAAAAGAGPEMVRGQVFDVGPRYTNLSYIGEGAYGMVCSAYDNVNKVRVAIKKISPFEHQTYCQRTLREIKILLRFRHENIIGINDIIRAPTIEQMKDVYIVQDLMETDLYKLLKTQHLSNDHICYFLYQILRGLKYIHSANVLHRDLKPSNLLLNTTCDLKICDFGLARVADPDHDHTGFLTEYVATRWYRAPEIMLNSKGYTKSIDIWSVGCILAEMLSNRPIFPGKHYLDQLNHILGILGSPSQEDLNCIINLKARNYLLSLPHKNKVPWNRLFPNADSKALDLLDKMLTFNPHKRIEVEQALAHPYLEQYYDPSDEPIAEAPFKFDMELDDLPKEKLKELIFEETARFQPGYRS
Method: as §1
(§2) In a final reaction volume of 25 μl, MAPK2 (h) (5-10 mU) is incubated with 25 mM Tris pH 7.5, 0.02 mM EGTA, 0.33 mg/ml myelin basic protein, 10 mM MgAcetate and [gamma-33P-ATP] (specific activity approx. 500 cpm/pmol, concentration as required). The reaction is initiated by the addition of the MgATP mix. After incubation for 40 minutes at room temperature, the reaction is stopped by the addition of Stl of a 3% phosphoric acid solution. 10 μl of the reaction is then spotted onto a P30 filtermat and washed three times for 5 minutes in 75 mM phosphoric acid and once in methanol prior to drying and scintillation counting.

[4] = target: MuSK(h) (Homo sapiens, UniProt O15146); assay: Protein kinase inhibition assay; assay type: biochemical; conditions: read-out: percent residual activity of MuSK(h)
MuSK(h), sequence (O15146 24-869): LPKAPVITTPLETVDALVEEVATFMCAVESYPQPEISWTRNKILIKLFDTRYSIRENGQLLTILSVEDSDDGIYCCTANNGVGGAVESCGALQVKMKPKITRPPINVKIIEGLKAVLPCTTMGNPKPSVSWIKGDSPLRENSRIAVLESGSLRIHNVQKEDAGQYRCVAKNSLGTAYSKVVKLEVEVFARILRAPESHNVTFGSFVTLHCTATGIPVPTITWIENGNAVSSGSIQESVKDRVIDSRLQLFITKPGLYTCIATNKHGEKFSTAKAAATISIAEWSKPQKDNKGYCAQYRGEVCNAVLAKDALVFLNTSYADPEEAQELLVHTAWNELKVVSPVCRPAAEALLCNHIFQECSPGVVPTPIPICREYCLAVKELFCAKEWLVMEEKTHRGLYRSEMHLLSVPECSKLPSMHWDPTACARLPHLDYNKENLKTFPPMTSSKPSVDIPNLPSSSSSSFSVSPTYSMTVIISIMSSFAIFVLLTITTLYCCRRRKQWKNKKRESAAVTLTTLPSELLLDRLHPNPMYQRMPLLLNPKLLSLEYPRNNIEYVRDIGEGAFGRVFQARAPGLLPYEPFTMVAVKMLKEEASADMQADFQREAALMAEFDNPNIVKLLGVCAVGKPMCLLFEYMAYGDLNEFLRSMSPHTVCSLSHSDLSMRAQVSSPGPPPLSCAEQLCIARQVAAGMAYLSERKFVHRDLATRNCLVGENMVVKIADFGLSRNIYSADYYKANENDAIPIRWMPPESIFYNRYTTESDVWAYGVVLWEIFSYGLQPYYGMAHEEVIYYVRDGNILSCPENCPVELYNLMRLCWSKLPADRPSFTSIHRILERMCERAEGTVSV
Method: as §1
as §2, with “μl, MuSK” for “μl, MAPK2”, “with 8” for “with 25”, “mM MOPS” for “mM Tris”, “pH 7.0, 0.2” for “pH 7.5, 0.02”, “mM EDTA, 5 mM MnCl2,” for “mM EGTA,”, “of 5 μl” for “of Stl”

[5] = test system: cells; assay: Apoptosis by Annexin V binding (FACS); assay type: cell-based
Method: Apoptosis was assessed by Annexin V binding in flow cytometry fluorescence activated cell sorting (FACS) assays. In such assays, cells were harvested and washed twice in PBS (4° C.) and resuspended at a concentration of 1×10^6 cells/ml in Binding Buffer (10× solution contains 0.1M HEPES/NaOH, pH7.4; […]; 25 mM CaCl2; PharMingen, 66121A). Cells were aliquotted (100 ul) into FACS tubes with Annexin V and/or viability dye. The tube contents were mixed gently and incubated for 15 minutes at room temperature in the dark. Binding Buffer (400 ul) was added to each tube and analyzed immediately by flow cytometry.
Annexin V is available in biotin, FITC (Annexin-V-FITC; PharMingen, 65874X) and PE (Annexin-PE; PharMingen, 65875X) formats. When using Annexin-V-FITC, Propidium Iodide (PI; Sigma, P 4170) was used as the viability marker (5 ul of a 50 ug/ml stock solution). When using Annexin-V-PE, 7-AminoActinomycin D (7-AAD; Sigma, A 9400) was the preferred viability marker (1 ug/ml final concentration) as there is less spectral overlap of PE and 7-AAD than PE and PI. While 7-AAD is not as bright as PI, FITC, PE and PI can be combined effectively. Tubes contained (i) cells alone, (ii) cells+Annexin, (iii) cells+PI (or 7-AAD) or (iv) cells+Annexin+PI (or 7-AAD) in some assays.

[6] = test system: CaMKII(r); assay: Protein kinase inhibition assay; assay type: biochemical, rat; conditions: 2.5 μM
Method: as §1
In a final reaction volume of 25 μl, CaMKII (r) (5-10 mU) is incubated with 40 mM HEPES pH 7.4, 5 mM CaCl2, 30 μg/ml calmodulin, 30 μM KKLNRTLSVA (SEQ ID NO:212), 10 mM MgAcetate and [gamma-33P-ATP] (specific activity approx. 500 cpm/pmol, concentration as required). The reaction is initiated by the addition of the MgATP mix. After incubation for 40 minutes at room temperature, the reaction is stopped by the addition of 5 μl of a 3% phosphoric acid solution. […]

PDGFRα(h), sequence (P16234 24-1089): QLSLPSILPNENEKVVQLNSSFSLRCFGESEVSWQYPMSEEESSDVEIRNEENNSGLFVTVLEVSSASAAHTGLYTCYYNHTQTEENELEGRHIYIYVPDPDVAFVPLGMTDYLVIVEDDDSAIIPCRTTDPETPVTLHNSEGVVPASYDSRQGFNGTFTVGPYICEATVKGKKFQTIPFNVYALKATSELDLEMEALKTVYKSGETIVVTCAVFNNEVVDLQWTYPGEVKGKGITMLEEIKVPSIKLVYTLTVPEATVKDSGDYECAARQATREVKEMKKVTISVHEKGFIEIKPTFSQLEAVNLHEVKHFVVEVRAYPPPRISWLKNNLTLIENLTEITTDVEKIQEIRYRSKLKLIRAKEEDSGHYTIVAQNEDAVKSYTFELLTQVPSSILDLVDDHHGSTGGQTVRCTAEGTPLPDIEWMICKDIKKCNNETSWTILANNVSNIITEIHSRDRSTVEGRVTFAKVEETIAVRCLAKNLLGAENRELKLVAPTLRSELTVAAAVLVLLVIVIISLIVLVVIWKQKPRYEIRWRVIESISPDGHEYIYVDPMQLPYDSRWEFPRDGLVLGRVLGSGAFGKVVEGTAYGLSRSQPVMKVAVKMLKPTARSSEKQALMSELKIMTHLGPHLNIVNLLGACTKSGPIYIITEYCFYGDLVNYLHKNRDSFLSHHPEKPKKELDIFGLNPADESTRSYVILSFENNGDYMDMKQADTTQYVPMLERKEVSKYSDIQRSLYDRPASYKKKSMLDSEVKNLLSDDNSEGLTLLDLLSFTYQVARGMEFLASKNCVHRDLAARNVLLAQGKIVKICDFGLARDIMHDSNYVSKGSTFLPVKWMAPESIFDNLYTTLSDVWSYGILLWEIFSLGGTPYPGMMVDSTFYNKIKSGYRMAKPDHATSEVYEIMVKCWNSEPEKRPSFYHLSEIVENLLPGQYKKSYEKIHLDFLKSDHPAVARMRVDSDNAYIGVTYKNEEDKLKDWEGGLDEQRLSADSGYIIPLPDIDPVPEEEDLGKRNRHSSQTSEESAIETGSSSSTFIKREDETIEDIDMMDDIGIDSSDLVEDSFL

Row | remaining activity at 2.5 µM [1] [%] | remaining activity at 2.5 µM [2] [%] | remaining activity at 2.5 µM [3] [%] | remaining activity at 2.5 µM [4] [%] | percent residual activity of CaMKII(r) [6] [%] | SMILES | induction of apoptosis [5]
1 | 106 | 110 | 108 | 108 | 113 | CC(=O)N1CCN(c2ccc3c(=O)c(C(=O)NCCN4CCCC4)c4n(C)c5ccccc5n4c3n2)CC1 [Compound B-1] | induced apoptosis following an efficient arrest of cell cycle progression
2 | 108 | 96 | 101 | 110 | 107 | CN1CCCC1CCNC(=O)c1cn2c3c(c(N4CCC(c5cnccn5)C4)c(F)cc3c1=O)Oc1cc3ccccc3cc1-2 (stereo not drawn) [Compound A-1] | induced apoptosis
